Measurements as given in patent US5126258A (priority 1988, dated 1992).

Columns and labels:
[1] = system: 21G2; experiment: Hydrolysis of reactant ligands by receptor 21G2; assay type: biochemical, mouse; parameters: key to hydrolysis by 21G2, symbol: --: No hydrolysis observed; conditions: pH 8.0; for hydrolysis by 21G2, symbol: 19: 2/5 uM, 21: 5/10 uM receptor/ligand
Method: (§1) ^1 Preliminary initial hydrolyses shown as the percentage of admixed
(§2) reactant ligand consumed for catalyzed and spontaneous hydrolyses. "--" =
(§3) No hydrolysis observed. "NT" = Not tried. All reactions were carried out
(§4) at pH 8.0 in a 50 mM phosphate buffer unless otherwise noted. Hydrolytic
(§5) percentages were determined by HPLC using a Hitachi model 655A12 liquid
(§6) chromatograph with a C18 Vydac 201TP54 column, except as noted below.
(§7) Mixtures of acetonitrile a nd water containing 0.1 percent trichloroaceti
(§8) acid [28:72-50:50 (v/v)] were used as elutant. Hydrolyses of Compounds 5
(§9) and 20 were assayed using fluorescence data.
(§10) ^2 Concentrations of receptor molecules (Rec.) and reactant ligands
(§11) (Lig.) in micromolar units, presuming a molecular weight of 150,000
(§12) daltons for each receptor molecule.
(§13) ^3 Reactant ligand (Lig.) used as substrate.
(§14) ^4 Time in hours that the reaction was permitted to take place.
(§15) ^5 Spontaneous hydrolytic percentages for the time period indicated.
(§16) ^6 Reaction carried out at pH 7.2 in a 50 mM phosphate buffer.

[2] = system: eight monoclonal receptors 21G2, 7E5, 37G2, 13E10, 12C9, 44A2, 17G8 and 22F5; experiment: Catalyzed hydrolysis of reactant ligands by the eight QPN1 monoclonal receptors, summary; assay type: biochemical, mouse; conditions: pH 8.0
Method: Mice were hyperimmunized with the Compound 13-KLH conjugate over a three to four week time period. Sera were assayed in an ELISA using a Compound 13-BSA conjugate bound to microtiter plate wells as the solid-phase antigen. Cloned hybridomas were also screened using that ELISA assay.
Each of those catalyses could be inhibited by an appropriate analog-ligand. Thus, a relatively high percentage of induced monoclonal receptors was capable of catalyzing an esterolytic reaction. The reason for this relatively high percentage of useful receptors being induced is unknown, but could be due to the presence of phosphonamidate group nitrogen atom, as compared to a phosphonate oxygen atom, or to the quinoline nucleus of the analog-ligand. Those eight catalytic monoclonal receptors and the hybridomas that secrete them are identified by the laboratory designations "QPN1 7E5", "QPN1 12C9", "QPN1 13E10", "QPN1 17G8", "QPN1 21G2", "QPN1 22F5", "QPN1 37G2" and QPN1 44A2. The prefix "QPNI" is sometimes omitted herein when discussing these hybridomas and receptors.
Amide cleavage for Compounds 14 and 15 was assayed by analyzing for the production of free aminoquinaldine or aminonaphthalene by measuring the increase in the azo dye that results from derivatizing the free aminoquinaldine or aminonapthalene with a diazotization reagent.
Catalysis reactions were conducted by preparing a reaction admixture of 100 microliters (ul) total volume containing 5 micromolar (uM) monoclonal antibody, 50-75 uM amide reactant ligand substrate and a buffer described hereinafter. The buffer included in the above admixture varied depending upon the pH utilized as follows: pH 5, 10 […] sodium acetate, 10 mM sodium chloride; pH 7.2, 10 mM sodium phosphate, 0.15 molar (M) sodium chloride; pH 8.0; 50 mM sodium phosphate. The amide-containing substrates screened in this assay were added to the above admixture in 1 ul of a 100-fold concentrated stock solution of dimethyl formamide (DMF). Monoclonal antibody was added to the above admixture from a concentrated stock solution. The resulting admixture was placed into the well of a 96 well flat bottom microtiter plate (Costar, Cambridge, Mass.) and maintained in a moist vapor environment chamber at 23 degrees C. The production of aminoquinaldine or aminonaphthalene was then assayed as described below after 2,3,5, or 6 days.
The aminoquinaldine or aminonapthalene product produced by the catalyzed reaction was measured by first admixing 20 ul of 5M HCl, 80 ul acetone and 10 ul 0.5% (w/v) sodium nitrite to the reaction admixture to form a second admixture and maintaining that second admixture for 3 minutes at room temperature. Thereafter, 10 ul 2.5% (w/v) ammonium sulfamate was added to form a third admixture that was maintained for 2 minutes at room temperature. A still further 10 ul of 0.5% (w/v) N-(1-napthyl)ethylenediamine dihydrochloride was added to form a fourth admixture that was then maintained for 15 minutes at room temperature. Thereafter the resulting azo dye present in the fourth admixture was measured by absorbance spectroscopy at 540 nanometers (nm) for aminoquinaldine using a Model EL 309 Automated Microplate Reader (Bio-Tek Instruments, Winooski, Vt.).

[3] = system: 22F5; experiment: Hydrolysis of reactant ligands by receptor 22F5; assay type: biochemical, mouse; parameters: key to hydrolysis by 22F5, symbol: --: No hydrolysis observed; conditions: pH 8.0; for hydrolysis by 22F5, symbol: 19: 2/5 uM, 21: 5/10 uM receptor/ligand
Method: as §1, §2, §3, §4, §5, §6, §7, §8, §9, §10, §11, §12, §13, §14, §15, §16

[4] = system: 37G2; experiment: Hydrolysis of reactant ligands by receptor 37G2; assay type: biochemical, mouse; parameters: key to hydrolysis by 37G2, symbol: --: No hydrolysis observed; conditions: pH 8.0; for hydrolysis by 37G2, symbol: 19: 2/5 uM, 21: 5/10 uM receptor/ligand
Method: as §1, §2, §3, §4, §5, §6, §7, §8, §9, §10, §11, §12, §13, §14, §15, §16

[5] = system: 13E10; experiment: Hydrolysis of reactant ligands by receptor 13E10; assay type: biochemical, mouse; parameters: key to hydrolysis by 13E10, symbol: --: No hydrolysis observed; conditions: pH 8.0; for hydrolysis by 13E10, symbol: 19: 2/5 uM, 21: 5/10 uM receptor/ligand
Method: as §1, §2, §3, §4, §5, §6, §7, §8, §9, §10, §11, §12, §13, §14, §15, §16

[6] = system: 7E5; experiment: Hydrolysis of reactant ligands by receptor 7E5; assay type: biochemical, mouse; parameters: key to hydrolysis by 7E5, symbol: --: No hydrolysis observed; conditions: pH 8.0; for hydrolysis by 7E5, symbol: 19: 2/5 uM, 21: 5/10 uM receptor/ligand
Method: as §1, §2, §3, §4, §5, §6, §7, §8, §9, §10, §11, §12, §13, §14, §15, §16

[7] = system: 44A2; experiment: Hydrolysis of reactant ligands by receptor 44A2; assay type: biochemical, mouse; parameters: key to hydrolysis by 44A2, symbol: --: No hydrolysis observed; conditions: pH 8.0; for hydrolysis by 44A2, symbol: 19: 2/5 uM, 21: 5/10 uM receptor/ligand
Method: as §1, §2, §3, §4, §5, §6, §7, §8, §9, §10, §11, §12, §13, §14, §15, §16

[8] = system: 1209; experiment: Hydrolysis of reactant ligands by receptor 12C9 (column head prints 1209); assay type: biochemical, mouse; parameters: key to hydrolysis by 1209, symbol: --: No hydrolysis observed; conditions: pH 8.0; for hydrolysis by 1209, symbol: 19: 2/5 uM, 21: 5/10 uM receptor/ligand
Method: as §1, §2, §3, §4, §5, §6, §7, §8, §9, §10, §11, §12, §13, §14, §15, §16

[9] = system: 17G8; experiment: Hydrolysis of reactant ligands by receptor 17G8; assay type: biochemical, mouse; parameters: key to hydrolysis by 17G8, symbol: --: No hydrolysis observed; conditions: pH 8.0; for hydrolysis by 17G8, symbol: 19: 2/5 uM, 21: 5/10 uM receptor/ligand
Method: as §1, §2, §3, §4, §5, §6, §7, §8, §9, §10, §11, §12, §13, §14, §15, §16

[10] = Spontaneous (uncatalyzed, background) hydrolysis; assay type: physicochemical; parameters: key to Spon. (spontaneous hydrolysis), symbol: --: No hydrolysis observed; conditions: for Spon. (spontaneous hydrolysis), symbol: pH 8.0
Method: The practical range of pH for the assay is limited by the rapid spontaneous rate of hydrolysis of an ester Compound 5 above pH 8.0. Initially, the ester was used at a concentration that was about four-fold greater than that of the protein, and the mixture was incubated at pH 7.2 for 10 minutes. Any change in fluorescence above background was noted.
The lack of spectroscopic distinction between such esters and their hydrolysis products recommended a chromatographic analysis of the process. Referring to FIG. 3, a mixture of Compound 7 (5 uM) and the monoclonal antibody from hybridoma P3 6D4 (0.1 uM) in phosphate buffer (50 mM, pH 8.0) was analyzed over time by high performance liquid chromatography (HPLC). The accelerated hydrolysis of the ester was apparent from the decrease of its peak and the concurrent increase in two new peaks that correspond with the expected products. Under these conditions, the ester is completely consumed in 60-80 minutes during which time the background rate accounts for about 12 to 16 percent hydrolysis. The chromatographic profile is the same as that produced by treatment with hog liver esterase.
^c The rate constants were determined spectrophotometrically (at 245
nm) by measuring initial rates at five concentrations of ester.
as §1, §2, §3, §4, §5, §6, §7, §8, §9, §15
Reaction kinetics were studied using three reactant ligands as substrates for monoclonal receptors 37G2 and 22F5. Data from initial rates were consistent with Michaelis-Menten reaction mechanism for a usual enzyme-substrate system. Initial rates were followed using at 271 nm using a U.V.-visible spectorphotometer for Compound 17, and a fluorescence spectrometer for Compounds 5 and 20, using an excitation wavelength of 355 nm and an emission wavelength of 455 nm for both compounds.

[11] = receptor/ligand uM, time h: 17 1/10, 2, 18 2/10, 24, 20 2/10, 0.33, 5 1/5, 0.33, 22 5/10, 3.5, preliminary

CC(=O)Oc1cccc2ccccc12 [Compound 18]
hydrolysis by 21G2 [1, 11]: 72 percentage of reactant ligand
receptors (of eight) that catalyzed hydrolysis of the compound [2]: all of the receptors except 12C9 catalyzed the hydrolysis
hydrolysis by 22F5 [3, 11]: 100 percentage of reactant ligand
hydrolysis by 37G2 [4, 11]: 92 percentage of reactant ligand
hydrolysis by 13E10 [5, 11]: 69 percentage of reactant ligand
hydrolysis by 7E5 [6, 11]: 76 percentage of reactant ligand
hydrolysis by 44A2 [7, 11]: 84 percentage of reactant ligand
hydrolysis by 1209 [8, 11]: 56 percentage of reactant ligand
hydrolysis by 17G8 ([9]; receptor/ligand uM, time h: 18 2/10, 24, 20 2/10, 0.33, 5 1/5, 0.33, 22 5/10, 3.5, preliminary): 84 percentage of reactant ligand
Spon. (spontaneous hydrolysis) ([10]; pH 8.0, 50 mM phosphate, time (h): 17 2, 18 24, 20 0.33, 5 0.33, 22 3.5): 34 percentage of reactant ligand

COC(=O)Cc1ccc(NC(C)=O)cc1 [Compound 19]
hydrolysis by 21G2, symbol [1]: --
receptors (of eight) that catalyzed hydrolysis of the compound [2]: none of the receptors
hydrolysis by 22F5, symbol [3]: --
hydrolysis by 37G2, symbol [4]: --
hydrolysis by 13E10, symbol [5]: --
hydrolysis by 7E5, symbol [6]: --
hydrolysis by 44A2, symbol [7]: --
hydrolysis by 1209, symbol [8]: --
hydrolysis by 17G8, symbol [9]: --
Spon. (spontaneous hydrolysis), symbol [10]: --

CC(=O)Nc1ccc(CC(=O)Oc2ccccc2NC(C)=O)cc1 [Compound 21]
hydrolysis by 21G2, symbol [1]: --
receptors (of eight) that catalyzed hydrolysis of the compound [2]: lack of hydrolysis
hydrolysis by 22F5, symbol [3]: --
hydrolysis by 37G2, symbol [4]: --
hydrolysis by 13E10, symbol [5]: --
hydrolysis by 7E5, symbol [6]: --
hydrolysis by 44A2, symbol [7]: --
hydrolysis by 1209, symbol [8]: --
hydrolysis by 17G8, symbol [9]: --
Spon. (spontaneous hydrolysis), symbol [10]: --
